Experimental data published in EP3658131B1, “COMPOSITION FOR THE TREATMENT OF BACTERIAL VAGINOSIS” (Farma-Derma S.R.L., priority 2017, dated 2019).

How the values were obtained:
Format in all cases: cell-based
[1] = test system: Escherichia coli ATCC 8739; assay: Reduction of microbial load after incubation with the mixtures (Test 2); conditions: 4 hours at 37°C
Protocol: (§1) 3 different mixtures of substances were prepared whose composition is described below: − MD(5mg) + AL(90%,11mg) [formula] − DQC(8mg) [formula] − DQC(8mg) + MD(5mg) + AL(90%,11mg) [formula]
(§2) To evaluate the antibacterial efficacy of the ingredients in the three compositions described above, the pure raw materials directly dissolved in the culture medium were tested. Aliquots of the 3 mixtures were prepared for each of the bacterial strains being evaluated. Each mixture was placed in a receptacle containing a suitable volume of a peptone water solution with pH 5.5 having a concentration of the bacterial strain equal to at least 10^5 CFU/ml.
(§3) Each container was placed in incubation at 37°C for 4 hours to promote the dissolution and the action of the ingredients. A negative control was prepared for each strain i.e. a solution without the presence of the substances being tested, which is treated in the same experimental conditions as the receptacles containing the mixtures being tested.
(§4) At the end of the incubation period the contents of each container were neutralised and seeded in a suitable culture medium, the micro-organisms that had grown were counted. Each seeding was performed in triplicate.

[2] = test system: Gardnerella vaginalis ATCC 11418; assay: as above; conditions: 4 hours at 37°C
Protocol: as §1, §2, §3, §4

[3] = test system: Prevotella loescheii ATCC 15930; assay: as above; conditions: 4 hours at 37°C
Protocol: as §1, §2, §3, §4

[4] = test system: Staphylococcus aureus ATCC 6538; assay: as above; conditions: 4 hours at 37°C
Protocol: as §1, §2, §3, §4

[5] = test system: Lactobacillus Acidophilus ATCCC 4356; assay: Survival/growth of lactobacilli after incubation with the mixtures (Test 2); conditions: 4 hours at 37°C
Protocol: as §1, §2, §3, §4

[6] = test system: Gardnerella vaginalis ATCC 11418 + Lactobacillus Acidophilus ATCCC 4356; assay: Survival/growth of lactobacilli in metabolic competition with a pathogenic strain (Test 2); conditions: for Reduction in microbial load with respect to the negative control: values only refer to the lactobacilli, negative value = growth
Protocol: The selectivity of the compostion is verified by evaluating the survival ability of the Lactobacillus Acidophilus in the presence and absence of another bacterial strain in metabolic competition.
as §1, §2, §3, §4

[7] = peptone water pH 5.5, at least 10^5 CFU/ml, mean of 3 replicates

**Q.** What does the source list for Cc1cc(N)c2ccccc2[n+]1CCCCCCCCCC[n+]1c(C)cc(N)c2ccccc21 [DQC, dequalinium chloride]?
**A.** Reduction in microbial load with respect to the negative control ([1]; peptone water pH 5.5): 50.60%; Microbial load [1, 7]: 1,037,400 CFU/ml; Reduction in microbial load with respect to the negative control ([2]; peptone water pH 5.5): 74.31%; Microbial load [2, 7]: 4,205 CFU/ml; Reduction in microbial load with respect to the negative control ([3]; peptone water pH 5.5): 90.56%; Microbial load [3, 7]: 3,367 CFU/ml; Reduction in microbial load with respect to the negative control ([4]; peptone water pH 5.5): 60.00%; Microbial load [4, 7]: 14,267 CFU/ml; Microbial load [5, 7]: 5,267 CFU/ml; Reduction in microbial load with respect to the negative control ([5]; peptone water pH 5.5, negative value = growth): 96.18%; Microbial load ([6]; values only refer to the lactobacilli (selective media), 4 hours at 37°C, pH 5.5, mean of 3 replicates): 1,400 CFU/ml; Reduction in microbial load with respect to the negative control [6]: 60.00%; Reduction in microbial load with respect to the negative control ([6]; listed as dequalinium): 60.00%
